What was measured:
[1] = target: T1, polyamine binding site of the NR2B subunit of the NMDA receptor (Homo sapiens, UniProt Q05586+Q13224); assay: Filtration-based receptor binding assay with [3H]-Ifenprodil, NR2B subunit; conditions: membranes of L(tk-) cells expressing NR1-1a/NR2B, Ki by Cheng-Prusoff, mean ± SEM, read-out: affinity to the NR2B binding site of the NMDA receptor
T1 construct: host or cells: mouse L(tk-) cells; expression induced with dexamethasone, then membrane homogenate prepared
Method: The determination was performed using a filtration-based receptor binding assay on 96-well-multiplates for the polyamine binding site of the NR2B subunit of the NMDA receptor using [^3H]-Ifenprodil as radioligand.
Mouse L(tk-) cells stably transfected with the dexamethasone-inducible eukaryotic expression vectors pMSG NR1-1a, pMSG NR2B in a 1:5 ratio were a generous gift from D. […] Steinhilber (Department of Pharmacy, University of Frankfurt, Germany). The transformed L(tk-) cells were grown in Modified Earl's Medium (MEM) containing 10% of standardized FCS (Biochrom AG, Berlin, Germany). The expression of the NMDA receptor at the cell surface was induced after the cell density of the adherent growing cells had reached approximately 90% of confluency. […]
For the binding assay, the cell pellet was resuspended in PBS buffer and the number of cells was determined using an improved Neubauer's counting chamber (VWR, Darmstadt, Germany). […]
The competitive binding assay was performed with the radioligand [^3H]-Ifenprodil (60 Ci/mmol; Perkin Elmer) using standard 96-well-multiplates (Diagonal, Muenster, Germany). […] The bound radioactivity trapped on the filters was counted in the scintillation analyzer (Microbeta Counter, Perkin Elmer). […] The non-specific binding was determined with 10 μM unlabeled Ifenprodil. […]

σ1 receptor = target: T2, σ1 receptor (Cavia porcellus, UniProt Q60492); assay: Binding assay with [3H]-(+)-pentazocine, σ1 receptor; conditions: guinea pig brain membranes, read-out: affinity to the σ1 receptor
T2 construct: Five guinea pig brains (Harlan Winkelmann, Borchen, Germany) were homogenized; tissue Harlan Winkelmann, Borchen, Germany; host or cells: guinea pig brain membrane preparation
Method: Five guinea pig brains (Harlan Winkelmann, Borchen, Germany) were homogenized with the potter (500-800 rpm, 10 up-and-down strokes) in 6 volumes of cold 0.32 M sucrose. […] This procedure was repeated twice.
The incubation was terminated by rapid filtration through the presoaked filtermats using a cell harvester.

T2 sequence (Q60492 whole entry): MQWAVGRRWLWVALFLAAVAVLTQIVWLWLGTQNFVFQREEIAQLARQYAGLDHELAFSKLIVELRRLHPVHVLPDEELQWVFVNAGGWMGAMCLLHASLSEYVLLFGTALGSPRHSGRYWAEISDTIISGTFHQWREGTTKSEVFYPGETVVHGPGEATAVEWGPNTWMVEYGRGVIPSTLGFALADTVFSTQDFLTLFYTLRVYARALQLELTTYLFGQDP
T1 sequence (Q13224 27-1484, other chains not shown): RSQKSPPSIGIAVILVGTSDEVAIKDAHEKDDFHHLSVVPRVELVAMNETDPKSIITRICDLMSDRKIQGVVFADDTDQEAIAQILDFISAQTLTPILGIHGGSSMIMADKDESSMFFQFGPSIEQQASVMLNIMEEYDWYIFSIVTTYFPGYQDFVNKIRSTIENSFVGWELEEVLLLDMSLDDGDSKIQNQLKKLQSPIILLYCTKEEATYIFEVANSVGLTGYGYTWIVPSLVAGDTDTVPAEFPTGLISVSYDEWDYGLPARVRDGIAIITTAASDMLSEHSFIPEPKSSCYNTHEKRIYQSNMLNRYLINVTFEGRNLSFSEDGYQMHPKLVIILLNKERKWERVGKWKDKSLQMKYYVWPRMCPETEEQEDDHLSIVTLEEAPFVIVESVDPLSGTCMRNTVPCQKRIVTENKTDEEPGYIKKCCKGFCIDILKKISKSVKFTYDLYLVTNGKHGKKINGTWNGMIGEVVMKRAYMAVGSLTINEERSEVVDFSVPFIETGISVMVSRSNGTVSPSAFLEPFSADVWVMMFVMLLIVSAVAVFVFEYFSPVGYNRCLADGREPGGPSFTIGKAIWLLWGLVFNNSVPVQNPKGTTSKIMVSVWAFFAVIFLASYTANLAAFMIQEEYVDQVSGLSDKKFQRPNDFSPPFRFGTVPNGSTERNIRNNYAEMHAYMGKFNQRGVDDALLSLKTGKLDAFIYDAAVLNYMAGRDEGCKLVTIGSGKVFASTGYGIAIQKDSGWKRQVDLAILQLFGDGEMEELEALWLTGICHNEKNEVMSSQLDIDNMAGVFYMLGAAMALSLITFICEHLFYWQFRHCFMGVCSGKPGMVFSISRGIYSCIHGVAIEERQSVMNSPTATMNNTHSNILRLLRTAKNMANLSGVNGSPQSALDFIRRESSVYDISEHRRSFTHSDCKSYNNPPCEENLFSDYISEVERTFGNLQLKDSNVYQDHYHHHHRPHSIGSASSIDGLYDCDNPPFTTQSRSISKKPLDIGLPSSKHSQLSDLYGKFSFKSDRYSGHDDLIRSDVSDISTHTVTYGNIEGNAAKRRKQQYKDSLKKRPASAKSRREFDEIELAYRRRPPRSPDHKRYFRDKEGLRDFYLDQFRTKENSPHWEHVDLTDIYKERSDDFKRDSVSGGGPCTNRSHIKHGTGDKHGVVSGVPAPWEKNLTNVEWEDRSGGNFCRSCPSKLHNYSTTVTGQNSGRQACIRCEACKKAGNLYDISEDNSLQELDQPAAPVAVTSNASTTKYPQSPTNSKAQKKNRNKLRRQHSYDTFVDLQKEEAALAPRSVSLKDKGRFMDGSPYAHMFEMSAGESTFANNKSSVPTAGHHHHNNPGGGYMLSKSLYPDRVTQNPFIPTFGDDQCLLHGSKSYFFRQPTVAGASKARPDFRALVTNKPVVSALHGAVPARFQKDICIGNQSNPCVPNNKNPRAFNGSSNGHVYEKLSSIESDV

`COc1ccc2c(c1)CCN(CCCCc1ccccc1)CC2O` (centres unmarked) [formula (4)] was tested, and the Ki [1] was 15.3 ± 1.2 nM and the Ki (σ1 receptor) was 194 nM.
